Test results as given in ChEMBL document CHEMBL3392969, “SAR156497, an exquisitely selective inhibitor of aurora kinases” (J Med Chem, 2015).

Tests used:
in vitro [1] = conditions: mouse, liver microsomes
Description: Metabolic stability mouse liver microsomes assessed as stability at 5 uM by LC/MS-MS analysis

in vitro [2] = conditions: human, liver microsomes
Description: Metabolic stability human liver microsomes assessed as stability at 5 uM by LC/MS-MS analysis

Cytochrome P450 3A4 [3] = target: T1, Cytochrome P450 3A4 (Homo sapiens, UniProt P08684)
Description: Inhibition of human recombinant CYP3A4 co-expressed with human P450 reductase/human b5 reductase using 7-benzyloxyquinoline substrate

Aurora kinase B = Aurora kinase B (Homo sapiens, UniProt Q96GD4)
Description: Inhibition of poly-histidine tagged full length recombinant aurora B (unknown origin) assessed as phosphorylation of NuMA-histidine substrate by scintillation counting analysis

HeLa [4] = test: cells; conditions: Homo sapiens
Description: (§1) Antiproliferative activity against human HeLa cells assessed as 14C-thymidine incorporation by Micro-Beta radioactivity counting analysis

HeLa [5] = test system: HeLa
Description: as §1

[6] = Antitumor activity against human HCT116 cells xenografted in SCID mouse assessed as decrease in […] positive cells at 25 mg/kg/day, sc after 48 hrs infusion schedule; conditions: HCT-116, sc
Cytochrome P450 3A4 [7] = target: T1, Cytochrome P450 3A4; remark: listed apart in the source
Description: Inhibition of human recombinant CYP3A4 in liver microsomes by mechanism based inhibition assay

Aurora kinase C = target: T2, Aurora kinase C (Homo sapiens, UniProt Q9UQB9)
T2 sequence (Q9UQB9 whole entry): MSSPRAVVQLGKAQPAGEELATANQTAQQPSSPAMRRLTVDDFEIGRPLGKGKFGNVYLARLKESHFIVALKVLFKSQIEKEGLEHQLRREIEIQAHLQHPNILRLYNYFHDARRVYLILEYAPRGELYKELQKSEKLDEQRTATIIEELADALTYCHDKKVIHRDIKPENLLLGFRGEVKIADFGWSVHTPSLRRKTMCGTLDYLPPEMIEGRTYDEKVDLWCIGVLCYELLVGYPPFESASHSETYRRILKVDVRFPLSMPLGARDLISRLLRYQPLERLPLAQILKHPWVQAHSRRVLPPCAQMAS
Description: Inhibition of poly-histidine tagged full length recombinant aurora C (unknown origin) assessed as phosphorylation of NuMA-histidine substrate by scintillation counting analysis

[8] = Antitumor activity against human HCT116 cells xenografted in SCID mouse assessed as tumor growth at 25 mg/kg, sc after 24 hrs infusion schedule; conditions: route subcutaneous
in vitro [9] = conditions: human, Caco-2
Description: Permeability across human Caco2 cells

[10] = Antitumor activity against human HCT116 cells xenografted in SCID mouse assessed as decrease in […] positive cells at 50 mg/kg, sc after 24 hrs infusion schedule; conditions: HCT-116, sc
in vivo [11] = conditions: mouse, po
Description: Oral bioavailability in mouse

in vivo [12] = conditions: mouse
Description: Volume of distribution in mouse

in vivo [13] = conditions: mouse; remark: listed apart in the source
[14] = Antitumor activity against human HCT116 cells xenografted in SCID mouse assessed as decrease in […] positive cells at 25 mg/kg, sc after 24 hrs infusion schedule; conditions: HCT-116, sc
PBMC = test: cells; conditions: Homo sapiens, 96 h
Description: Cytotoxicity against human hematological tumor PBMC assessed as viability after 96 hrs by MTS assay

[15] = Antitumor activity against human HCT116 cells xenografted in SCID mouse assessed as tumor growth at 25 mg/kg/day, sc after 48 hrs infusion schedule; conditions: route subcutaneous
[16] = Plasma concentration in human HCT116 cells xenografted in SCID mouse at 50 mg/kg/day, sc infusion after 8 hrs

T1 sequence (P08684 whole entry): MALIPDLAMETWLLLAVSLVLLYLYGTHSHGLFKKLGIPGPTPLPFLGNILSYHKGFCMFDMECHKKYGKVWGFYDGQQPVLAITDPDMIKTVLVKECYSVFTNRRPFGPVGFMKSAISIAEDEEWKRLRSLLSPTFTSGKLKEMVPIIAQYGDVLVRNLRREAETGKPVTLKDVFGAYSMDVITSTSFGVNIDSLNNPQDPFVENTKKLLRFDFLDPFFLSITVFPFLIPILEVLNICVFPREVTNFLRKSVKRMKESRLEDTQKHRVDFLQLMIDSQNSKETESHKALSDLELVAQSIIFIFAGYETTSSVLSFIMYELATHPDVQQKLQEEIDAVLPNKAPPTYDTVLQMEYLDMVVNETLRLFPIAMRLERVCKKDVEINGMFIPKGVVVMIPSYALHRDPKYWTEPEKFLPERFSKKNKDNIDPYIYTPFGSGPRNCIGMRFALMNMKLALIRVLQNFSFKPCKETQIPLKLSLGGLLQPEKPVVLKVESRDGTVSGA
Chain of Aurora kinase B (Q96GD4 whole entry): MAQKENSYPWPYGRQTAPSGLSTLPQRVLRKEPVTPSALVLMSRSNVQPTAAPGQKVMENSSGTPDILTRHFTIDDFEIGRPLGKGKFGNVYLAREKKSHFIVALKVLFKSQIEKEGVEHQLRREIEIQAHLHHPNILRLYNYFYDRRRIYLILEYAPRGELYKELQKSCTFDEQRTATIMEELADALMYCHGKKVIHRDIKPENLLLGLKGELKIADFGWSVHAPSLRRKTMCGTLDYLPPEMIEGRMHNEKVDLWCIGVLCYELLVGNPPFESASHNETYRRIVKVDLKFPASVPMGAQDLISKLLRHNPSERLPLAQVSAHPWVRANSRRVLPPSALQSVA

| remaining at 5 µM (in vitro [1]) [%] | remaining at 5 µM (in vitro [2]) [%] | IC50 (Aurora kinase B) [µM] | IC50 (HeLa [4]) [µM] | Compound | also measured |
| --- | --- | --- | --- | --- | --- |
| 37 | 40 | 0.008 |  | CCOC(=O)c1[nH]cc2c1NC1=C(C(=O)CCC1)C2c1ccc(Sc2nc3c(O)cccc3[nH]2)o1 (racemic) | IC50 (Cytochrome P450 3A4 [3]): 0.49 µM |
|  |  | 0.18 | 4.6 | CCOC(=O)c1[nH]cc2c1NC1=C(C(=O)CCC1)C2c1ccc(Sc2nc3ccccc3[nH]2)s1 (racemic) |  |
|  |  | 0.016 | 8.75 | O=C1CCCC2=C1C(c1ccc(Sc3nc4ccccc4[nH]3)o1)c1c[nH]c(C(=O)O)c1N2 (single isomer, unassigned; (+)) |  |
|  |  | 0.003 |  | CCOC(=O)c1[nH]cc2c1NC1=C(C(=O)CNC1)C2c1ccc(Sc2nc3c(F)cccc3[nH]2)o1 (racemic) |  |
|  |  |  | > 10 | O=C1CNCC2=C1C(c1ccc(Sc3nc4ccccc4[nH]3)o1)c1c[nH]nc1N2 (racemic) |  |
|  |  |  | > 10 | Nc1nc(O)c2c(n1)NC1=C(C(=O)CCC1)C2c1ccc(Sc2nc3ccccc3[nH]2)o1 (racemic) |  |
|  |  | 0.026 |  | CCOC(=O)c1[nH]cc2c1NC1=C(C(=O)CN(C(=O)OC(C)(C)C)C1)C2c1ccc(Sc2nc3ccccc3[nH]2)o1 (racemic) |  |
|  |  | 0.005 | 0.3 | O=C1CCCC2=C1C(c1ccc(Sc3nc4ccccc4[nH]3)o1)c1cn[nH]c1N2 (racemic) |  |
|  |  | 0.019 | > 10 | NC(=O)c1[nH]nc2c1NC1=C(C(=O)CCC1)C2c1ccc(Sc2nc3ccccc3[nH]2)o1 (racemic) |  |
| 58 | 47 | 0.006 |  | CCOC(=O)c1[nH]cc2c1NC1=C(C(=O)CCC1)C2c1ccc(Sc2nc3cccc(F)c3[nH]2)o1 (racemic) | IC50 (Cytochrome P450 3A4 [3]): 4.5 µM |
| 55 | 58 |  |  | CCOC(=O)c1[nH]cc2c1NC1=C(C(=O)CCC1)C2c1ccc(Sc2nc3cc(F)c(F)cc3[nH]2)o1 (racemic) | IC50 (Cytochrome P450 3A4 [3]): 8.4 µM |
|  |  |  |  | CCOC(=O)c1[nH]cc2c1NC1=C(C(=O)CCC1)C2c1ccc(Sc2nc3ccccc3[nH]2)o1 (racemic) | IC50 (HeLa [5]): 0.015 µM |
|  |  |  | 0.026 | COC(=O)c1[nH]cc2c1NC1=C(C(=O)CCC1)C2c1ccc(Sc2nc3ccccc3[nH]2)o1 (single isomer, unassigned; (+)) |  |
|  |  | 1.1 | > 10 | CCOC(=O)c1[nH]cc2c1NC1=C(C(=O)CCC1)C2c1ccnc(Sc2nc3ccccc3[nH]2)c1 (racemic) |  |
|  |  | 0.007 | 4.4 | CCOC(=O)c1[nH]cc2c1NC1=C(C(=O)CCC1)C2c1cccc(Sc2nc3ccccc3[nH]2)n1 (racemic) |  |
| 30 | 65 | 0.004 |  | CCOC(=O)c1[nH]cc2c1NC1=C(C(=O)CN(C(=O)CN)C1)[C@H]2c1ccc(Sc2nc3ccccc3[nH]2)o1 | IC50 (Cytochrome P450 3A4 [3]): 0.5 µM |
|  |  |  | > 10 | O=C1CNCC2=C1C(c1cccc(Oc3ccccc3)c1)c1c[nH]nc1N2 (racemic) |  |
|  |  | 0.127 | 3.7 | O=C1CCCC2=C1C(c1ccc(Sc3nc4ccccc4[nH]3)o1)c1c[nH]cc1N2 (single isomer, unassigned; (+)) |  |
|  |  |  | > 10 | O=C1CNCC2=C1C(c1cccc(Oc3cc(Cl)cc(Cl)c3)c1)c1c[nH]nc1N2 (racemic) |  |
| 60 | 66 | 0.002 |  | CCOC(=O)c1[nH]cc2c1NC1=C(C(=O)CNC1)C2c1ccc(Sc2nc3ccccc3[nH]2)o1 (racemic) | IC50 (Cytochrome P450 3A4 [3]): 0.17 µM |
| 99 | 65 | 0.006 |  | CCOC(=O)c1[nH]cc2c1NC1=C(C(=O)CN(CC)C1)C2c1ccc(Sc2nc3ccccc3[nH]2)o1 (racemic) |  |
| 66 | 66 |  |  | CCOC(=O)c1[nH]cc2c1NC1=C(C(=O)CCC1)C2c1ccc(Sc2nc3ccc(F)c(F)c3[nH]2)o1 (racemic) | IC50 (Cytochrome P450 3A4 [3]): 34 µM |

| remaining at 5 µM (in vitro [1]) [%] | remaining at 5 µM (in vitro [2]) [%] | IC50 (Aurora kinase B) [µM] | IC50 (HeLa [4]) [µM] | Compound | also measured |
| --- | --- | --- | --- | --- | --- |
|  |  | 0.012 | 0.2 | CCOC(=O)c1[nH]cc2c1NC1=C(C(=O)CCC1)C2c1cccc(Oc2nc3ccccc3[nH]2)c1 (racemic) |  |
|  |  | 0.007 | 9.7 | CCOC(=O)c1[nH]cc2c1NC1=C(C(=O)CCC1)C2c1cccc(Sc2nc3ccccc3[nH]2)c1 (racemic) |  |
| 36 | 66 | 0.004 |  | CCOC(=O)c1[nH]cc2c1NC1=C(C(=O)CCC1)C2c1ccc(Sc2nc3c(F)cc(F)cc3[nH]2)o1 (stereo not given) | IC50 (Cytochrome P450 3A4 [3]): 1 µM |
| 17 | < 40 | 0.002 |  | CCOC(=O)c1[nH]cc2c1NC1=C(C(=O)CN(C(=O)CN)C1)[C@H]2c1ccc(Sc2nc3c(F)cccc3[nH]2)o1 |  |
| 49 | 49 |  |  | CCOC(=O)c1[nH]cc2c1NC1=C(C(=O)CCC1)C2c1ccc(Sc2nc3cccnc3[nH]2)o1 (racemic) |  |
|  |  | 0.033 | 7.7 | CCOC(=O)c1[nH]nc2c1NC1=C(C(=O)CCC1)C2c1ccc(Sc2nc3ccccc3[nH]2)o1 (racemic) |  |
|  |  |  | > 10 | COc1ccc(Oc2cccc(C3C4=C(CNCC4=O)Nc4n[nH]cc43)c2)cc1 (racemic) |  |
|  |  |  | > 10 | CCOC(=O)c1[nH]cc2c1NC1=C(C(=O)CCC1)C2c1cnc(Sc2nc3ccccc3[nH]2)s1 (racemic) |  |
|  |  |  | > 10 | O=C1CNCC2=C1C(c1cccc(Oc3ccc(Cl)c(Cl)c3)c1)c1c[nH]nc1N2 (racemic) |  |
| 22 | 46 |  |  | CCOC(=O)c1[nH]cc2c1NC1=C(C(=O)CCC1)C2c1ccc(Sc2nc3c(F)c(F)c(F)cc3[nH]2)o1 (racemic) |  |
| 88 | 90 |  |  | CCOC(=O)c1[nH]cc2c1NC1=C(C(=O)CCC1)C2c1ccc(Sc2nc3cc(Cl)ccc3[nH]2)o1 (racemic) |  |
|  |  | 0.002 | 1.5 | CCOC(=O)c1[nH]cc2c1NC1=C(C(=O)CCC1)C2c1cc(Sc2nc3ccccc3[nH]2)cs1 (racemic) |  |
| 85 | 68 | 0.007 |  | CCOC(=O)c1[nH]cc2c1NC1=C(C(=O)CCC1)C2c1ccc(Sc2nc3cccc(Cl)c3[nH]2)o1 (racemic) | IC50 (Cytochrome P450 3A4 [3]): 0.05 µM |
|  |  | 0.005 | 0.127 | COC(=O)c1csc2c1NC1=C(C(=O)CCC1)C2c1ccc(Sc2nc3ccccc3[nH]2)o1 (racemic) |  |
|  |  | 0.005 |  | CCOC(=O)c1[nH]cc2c1NC1=C(C(=O)CNC1)C2c1ccc(Sc2nc3cccc(Cl)c3[nH]2)o1 (racemic) |  |
| 77 | 73 |  |  | CCOC(=O)c1[nH]cc2c1NC1=C(C(=O)CCC1)C2c1ccc(Sc2nc3cc(F)ccc3[nH]2)o1 (racemic) | IC50 (Cytochrome P450 3A4 [3]): 12 µM |
|  |  |  | > 10 | O=C1CNCC2=C1C(c1cccc(Oc3ccc(Cl)cc3)c1)c1c[nH]nc1N2 (racemic) |  |
|  |  | 0.5 | > 10 | O=C1CCCC2=C1C(c1ccc(Sc3nc4ccccc4[nH]3)o1)c1n[nH]cc1N2 (racemic) |  |
| 83 | 69 |  |  | CCOC(=O)c1[nH]cc2c1NC1=C(C(=O)CCC1)C2c1ccc(Sc2nc3ccccc3[nH]2)o1 (single isomer, unassigned; (+)) | IC50 (Cytochrome P450 3A4 [3]): 0.19 µM; IC50 (HeLa [5]): 0.016 µM |
|  |  |  |  | CCOC(=O)c1[nH]cc2c1NC1=C(C(=O)CCC1)C2c1ccc(Sc2nc3ccccc3[nH]2)o1 (single isomer, unassigned; (-)) | IC50 (HeLa [5]): 7 µM |
|  |  | 0.008 |  | CCOC(=O)c1[nH]cc2c1NC1=C(C(=O)CN(Cc3ccccc3)C1)C2c1ccc(Sc2nc3ccccc3[nH]2)o1 (racemic) |  |
| 35 | 23 | 0.025 |  | CCOC(=O)c1[nH]cc2c1NC1=C(C(=O)CCC1)C2c1ccc(Sc2nc3c(N)cccc3[nH]2)o1 (racemic) |  |

| Compound | remaining at 5 µM (in vitro [1]) [%] | remaining at 5 µM (in vitro [2]) [%] | IC50 (Aurora kinase B) [µM] | IC50 (HeLa [4]) [µM] | also measured |
| --- | --- | --- | --- | --- | --- |
| CCOC(=O)c1[nH]cc2c1NC1=C(C(=O)CCC1)[C@H]2c1cccc(Oc2nc3ccccc3[nH]2)c1 | 32 | 53 | 0.001 | 0.067 | inhibition in vivo at 25 mg/kg/day [6]: 16%; Ki (Cytochrome P450 3A4 [7]): 0.99 µM; IC50 (Aurora kinase C): 0.003 µM; Activity [8]: 59%; Papp (in vitro [9]): 6 ×10⁻⁶ cm/s; inhibition in vivo at 50 mg/kg [10]: 47%; bioavailability (in vivo [11]): 64%; Vd (in vivo [12]): 0.14 L/kg; half-life (in vivo [13]): 2.4 h; inhibition in vivo at 25 mg/kg [14]: 19%; IC50 (PBMC): > 10 µM; Activity [15]: 19%; concentration at 8 h [16]: 63 µM |
